From patent US10745401B2, “Condensed lactam derivative” (Sumitomo Dainippon Pharma Co., Ltd., priority 2018, dated 2020)

Legend:
[1] = molecular target: hERG channel (Homo sapiens (Human), UniProt Q12809); test: Test 6-1: inhibitory activity for hERG channel (auto patch clamp, Qpatch); format: cell-based; settings: for IC50: whole cell auto patch clamp, hERG-CHO cells, read-out: hERG inhibition IC50; for hERG inhibition IC50 (nmol/L)/5-HT1A Ki (nmol/L): ratio of hERG IC50 to 5-HT1A Ki; for hERG inhibition IC50 (nmol/L)/5-HT2A Ki (nmol/L): ratio of hERG IC50 to 5-HT2A Ki
Summary of the method: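 Whole-cell patch clamp on an automated system using CHO cells stably expressing human hERG (IKr); 15 s pulse interval. Four increasing compound concentrations applied cumulatively; mean peak tail current from last 3 stimulations per concentration used. IC50 from inhibition versus pre-compound current, fitted by Hill equation.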

[2] = molecular target: T1, human 5-HT2A receptor (Homo sapiens (Human), UniProt P28223); test: Test 1: binding activity for human 5-HT2A receptor ([3H]Ketanserin, CHO cell membrane fraction)
Procedure: Test 1: Evaluation of Binding Activity for Human 5-HT1A Receptor, Human 5-HT2A Receptor, and Human D2 Receptor
Binding affinity of the present compound for human 5-HT1A receptor, human 5-HT2A receptor, and human D2 receptor was measured by the following procedures.
Each mixture was incubated at room temperature for 60 minutes. Then, the mixture was added quickly on a glassfiber filter plate (Multiscreen FB, Millipore, Inc.) coated with 0.3% aqueous polyethylenimine, and vacuum-filtered. Radioactivity remaining on the filter was measured with a liquid scintillation counter (PerkinElmer, Inc.). Binding inhibition rate was calculated from the following formula.
Ki of each compound was calculated from the following formula. Binding inhibition constant (Ki)=IC50/(1+S/Kd) wherein S is concentration of ligand; Kd is a binding dissociation constant of ligand to membrane, which is calculated from a saturated binding experiment conducted with the same cell membrane. A small Ki value means strong binding ability to a receptor.

[3] = Test 4: metabolic stability test in human hepatic microsome; format: in vitro ADME; settings: 0.1 mg/mL microsome, 0.1 μmol/L compound, 37° C., 30 minutes
Summary of the method: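 LC-MS quantified remaining parent after 30 min, 37° C, in pH 7.4 25 mmol/L phosphate containing 0.1 mg/mL human hepatic microsomes, 3.2 mmol/L NADPH and 0.1 μmol/L test compound. Value given as −LN(residual ratio)/30/0.1, mL/min/mg protein.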

[4] = molecular target: T1, human 5-HT2A receptor; test: Test 3: antagonist activity for human 5-HT2A receptor (aequorin luminescence, CHO-K1 cells); format: cell-based; settings: CHO-K1 cells, 1 nmol/L 5-HT
Procedure: Test 3: Evaluation of Antagonist Activity for Human 5-HT2A Receptor
Aequorin, Gα16 protein, and each receptor were transiently expressed in CHO-K1 cells (Chinese hamster ovary). […] Each compound dissolved in DMSO was added thereto, and changes in luminescence were measured by FDSS/μCELL functional drug screening system (Hamamatsu Photonics K.K.). Antagonist activity was calculated from the following formula. Antagonist activity (%)=100×{(Luminescence of well in the presence of 1 nmol/L 5-HT−Luminescence of well containing solvent)−(Luminescence of well in the presence of test compound and 1 nmol/L 5-HT−Luminescence of well containing solvent)}/(Luminescence of well in the presence of 1 nmol/L 5-HT−Luminescence of well containing solvent)

[5] = molecular target: T2, human 5-HT1A receptor (Homo sapiens (Human), UniProt P08908); test: Test 1: binding activity for human 5-HT1A receptor ([3H]8-OH-DPAT, CHO cell membrane fraction)
Summary of the method: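 Membranes incubated with [3H]8-OH-DPAT and compound for 60 min at room temperature, then filtered on polyethylenimine-coated glass-fibre plates and counted by liquid scintillation. IC50 from Hill analysis; Ki = IC50/(1+S/Kd), Kd from saturation binding on the same membranes.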

[6] = molecular target: human D2 receptor (Homo sapiens (Human), UniProt P14416); test: Test 1: binding activity for human D2 receptor ([3H]Spiperone, CHO cell membrane fraction); settings: for Ki: human D2 receptor, [3H]Spiperone; for D2 Ki/5-HT1A Ki / D2 Ki/5-HT2A Ki: selectivity ratio
Summary of the method: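 Compound displacement of [3H]ketanserin at 5-HT2A or [3H]spiperone at D2 was measured in CHO membrane fractions after 60 min at room temperature, with filtration and scintillation counting. IC50 was converted to Ki by Cheng–Prusoff using ligand concentration and Kd from saturation binding.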

[7] = molecular target: T2, human 5-HT1A receptor; test: Test 2: agonist activity for human 5-HT1A receptor ([35S]GTPγS binding); format: biochemical; settings: for EC50: [35S]GTPγS binding, concentration at which half the activity of Emax was obtained; for Emax at 10 µM: agonist activity in the presence of 10 μM of compound, relative to 100 μmol/L 5-HT
Summary of the method: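 [35S]GTPγS binding read-out: after 60 min at room temperature with test compound in GDP buffer, human 5-HT1A receptor CHO membranes were vacuum-filtered and retained radioactivity scintillation-counted. Agonist activity calculated by formula.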

T1 sequence (P28223 whole entry): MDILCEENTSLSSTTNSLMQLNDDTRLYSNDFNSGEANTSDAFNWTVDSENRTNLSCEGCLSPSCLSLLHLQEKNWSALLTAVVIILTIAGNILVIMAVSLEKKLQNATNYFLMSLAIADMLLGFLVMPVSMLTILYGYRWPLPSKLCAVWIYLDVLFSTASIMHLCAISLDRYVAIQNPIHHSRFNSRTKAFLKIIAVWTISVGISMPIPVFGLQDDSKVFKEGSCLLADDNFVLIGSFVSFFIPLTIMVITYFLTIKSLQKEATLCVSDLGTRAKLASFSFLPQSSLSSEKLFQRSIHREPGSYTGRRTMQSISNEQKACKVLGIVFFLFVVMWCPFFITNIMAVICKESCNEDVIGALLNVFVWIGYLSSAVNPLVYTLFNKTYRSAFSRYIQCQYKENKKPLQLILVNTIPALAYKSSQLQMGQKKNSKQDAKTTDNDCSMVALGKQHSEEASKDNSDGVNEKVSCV
hERG channel, sequence (Q12809 whole entry): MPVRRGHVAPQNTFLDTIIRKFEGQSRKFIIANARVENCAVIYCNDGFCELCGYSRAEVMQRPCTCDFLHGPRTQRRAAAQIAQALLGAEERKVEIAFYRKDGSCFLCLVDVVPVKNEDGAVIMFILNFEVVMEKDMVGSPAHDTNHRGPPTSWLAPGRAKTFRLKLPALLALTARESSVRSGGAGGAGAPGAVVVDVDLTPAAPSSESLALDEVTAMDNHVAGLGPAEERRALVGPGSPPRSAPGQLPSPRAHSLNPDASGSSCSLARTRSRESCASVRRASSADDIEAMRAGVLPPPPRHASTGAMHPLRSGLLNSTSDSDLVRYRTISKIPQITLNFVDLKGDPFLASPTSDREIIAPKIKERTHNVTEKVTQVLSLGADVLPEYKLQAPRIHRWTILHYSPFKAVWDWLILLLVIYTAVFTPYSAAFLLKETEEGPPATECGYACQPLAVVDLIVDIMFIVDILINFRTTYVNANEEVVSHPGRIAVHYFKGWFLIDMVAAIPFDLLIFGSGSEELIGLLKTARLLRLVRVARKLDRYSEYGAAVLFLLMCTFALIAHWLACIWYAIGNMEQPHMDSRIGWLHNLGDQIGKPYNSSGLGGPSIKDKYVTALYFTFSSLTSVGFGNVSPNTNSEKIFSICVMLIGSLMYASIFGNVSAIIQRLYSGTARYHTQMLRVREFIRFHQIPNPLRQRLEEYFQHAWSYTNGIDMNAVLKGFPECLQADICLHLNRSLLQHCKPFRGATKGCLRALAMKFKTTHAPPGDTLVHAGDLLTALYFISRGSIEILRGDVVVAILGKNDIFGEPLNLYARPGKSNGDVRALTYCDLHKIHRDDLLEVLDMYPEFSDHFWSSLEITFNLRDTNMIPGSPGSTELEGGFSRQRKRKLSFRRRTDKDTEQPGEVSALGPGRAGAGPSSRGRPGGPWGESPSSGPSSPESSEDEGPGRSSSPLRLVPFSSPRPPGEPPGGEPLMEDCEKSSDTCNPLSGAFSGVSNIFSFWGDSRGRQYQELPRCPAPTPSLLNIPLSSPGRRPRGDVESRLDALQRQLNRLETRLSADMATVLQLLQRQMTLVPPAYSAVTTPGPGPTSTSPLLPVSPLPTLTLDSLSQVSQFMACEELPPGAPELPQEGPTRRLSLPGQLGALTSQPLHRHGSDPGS
T2 sequence (P08908 whole entry): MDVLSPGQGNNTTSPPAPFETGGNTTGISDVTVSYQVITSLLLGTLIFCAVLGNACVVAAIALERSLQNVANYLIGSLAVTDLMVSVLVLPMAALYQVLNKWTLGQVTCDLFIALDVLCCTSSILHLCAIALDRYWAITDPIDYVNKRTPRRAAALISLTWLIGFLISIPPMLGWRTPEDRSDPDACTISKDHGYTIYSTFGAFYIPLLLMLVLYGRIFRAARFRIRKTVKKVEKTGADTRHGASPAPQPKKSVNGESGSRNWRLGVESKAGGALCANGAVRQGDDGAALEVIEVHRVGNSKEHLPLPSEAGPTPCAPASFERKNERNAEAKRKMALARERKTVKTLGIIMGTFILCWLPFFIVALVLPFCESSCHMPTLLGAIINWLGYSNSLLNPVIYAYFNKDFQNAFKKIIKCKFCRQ
human D2 receptor, sequence (P14416 whole entry): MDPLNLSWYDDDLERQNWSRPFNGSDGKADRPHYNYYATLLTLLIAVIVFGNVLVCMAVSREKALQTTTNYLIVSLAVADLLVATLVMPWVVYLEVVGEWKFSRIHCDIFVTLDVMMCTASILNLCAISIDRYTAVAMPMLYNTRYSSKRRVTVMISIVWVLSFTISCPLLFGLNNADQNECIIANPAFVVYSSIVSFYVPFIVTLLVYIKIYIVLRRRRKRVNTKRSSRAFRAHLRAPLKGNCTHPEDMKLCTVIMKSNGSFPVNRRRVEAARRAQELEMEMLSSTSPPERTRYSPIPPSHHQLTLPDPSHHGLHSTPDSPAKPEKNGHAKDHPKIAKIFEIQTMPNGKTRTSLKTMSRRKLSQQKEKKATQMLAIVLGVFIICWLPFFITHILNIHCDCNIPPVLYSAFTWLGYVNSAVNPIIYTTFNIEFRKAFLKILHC

Structure (SMILES)	IC50 [1]	Ki [2]	Metabolic stability in human hepatic microsome [3]	IC50 ([4]; aequorin luminescence)	Ki [5]	Ki [6]	EC50 [7]	Emax at 10 µM [7]	IC50 [4]	hERG inhibition IC50 (nmol/L)/5-HT1A Ki (nmol/L) [1]	hERG inhibition IC50 (nmol/L)/5-HT2A Ki (nmol/L) [1]	D2 Ki/5-HT1A Ki [6]	D2 Ki/5-HT2A Ki [6]
Cn1ncc2c1CCN(CCN1CCN(c3noc4ccccc34)CC1)C2=O [Example 131]	> 3000 nM	12 nM	<0.05 mL/min/mg protein	9.53 nM	279 nM	> 10000 nM	405 nM	48%					
CC1(CCN2CCN(c3noc4ccccc34)CC2)CCc2cccnc2C1=O (stereo not drawn) [Example 145]	> 3000 nM	1.15 nM	0.302 mL/min/mg protein	19 nM	38.1 nM		55.1 nM	58%					
Cc1noc2c1C(=O)N(CCN1CCN(c3noc4ccccc34)CC1)CC2 [Example 32, 5-{2-[4-(1,2-Benzoisoxazol-3-yl)piperazin-1-yl]ethyl}-3-methyl-6,7-dihydro[1,2]oxazolo[4,5-c]pyridin-4(5H)-one]	5500 nM	60 nM	<0.01 mL/min/mg protein		124 nM		644 nM	39%	95 nM				
Cn1cnc2c1CCCN(CCN1CCC(c3noc4ccccc34)CC1)C2=O [Example 101, 5-{2-[4-(1,2-Benzoisoxazol-3-yl)piperidin-1-yl]ethyl}-1-methyl-5,6,7,8-tetrahydroimidazo[4,5-c]azepin-4(1H)-one]	4100 nM	1.9 nM			60.1 nM	1020 nM	612 nM	47%	46 nM	68	2165	17	538
Cc1ncc2c(=O)n(CCN3CCN(c4noc5ccccc45)CC3)ccc2n1 [Example 193, 6-{2-[4-(1,2-Benzoisoxazol-3-yl)piperazin-1-yl]ethyl}-2-methylpyrido[4,3-d]pyrimidin-5(6H)-one]		122 nM		143 nM	387 nM	> 10000 nM	756 nM	27%				>25.8	>81.7
CC(C)c1ncc2c(n1)CCN(CCN1CCN(c3nsc4ccccc34)CC1)C2=O [Example 180]		4.28 nM	0.469 mL/min/mg protein	72.7 nM	32.2 nM	1560 nM	1260 nM	37%				48.3	363.5
COc1ccc2c(C3CCN(CCN4CCc5cccnc5C4=O)CC3)noc2c1 [Example 149]		217 nM		267 nM	184 nM	> 10000 nM	719 nM	16%				>54.3	>46.1
O=c1c2cncnc2ccn1CCN1CCC(c2noc3ccccc23)CC1 [Example 129]		20 nM	0.084 mL/min/mg protein	61.8 nM	51.4 nM		370 nM	31%					
O=C1c2cccnc2CCN1CCN1CCC(c2noc3cc(F)ccc23)CC1 [Example 121]	< 300 nM	105 nM	<0.05 mL/min/mg protein	57.4 nM	60.9 nM								
O=c1c2cnc(C(F)(F)F)cc2ccn1CCN1CCN(c2noc3ccccc23)CC1 [Example 173]		22.8 nM		184 nM	38.6 nM	> 10000 nM	40.8 nM	50%				>259.1	>438.0
Cc1cccc2c(C3CCN(CCN4CCc5cccnc5C4=O)CC3)noc12 [Example 120]		91 nM		912 nM	340 nM	> 10000 nM	630 nM						
Cn1ncc2c1CCC(CCN1CCC(c3noc4ccccc34)CC1)C2=O (stereo not drawn) [Example 28]	1400 nM	1.4 nM	0.017 mL/min/mg protein		13.8 nM		7.59 nM	94%	9.8 nM				
O=C1c2ncccc2CCC1CCN1CCC(c2noc3ccccc23)CC1 (stereo not drawn) [Example 24]	400 nM	3.55 nM	0.018 mL/min/mg protein		13.2 nM		63.2 nM	31%	33 nM				
O=C1c2cnccc2CCN1CCN1CCN(c2nsc3ccccc23)CC1 [Example 18]	5900 nM	3.7 nM	0.124 mL/min/mg protein		10.6 nM		18 nM	90%	36 nM				
Cn1ncc2c1C(=O)N(CCN1CCN(c3nsc4ccccc34)CC1)CCC2 [Example 47]	4000 nM	17.9 nM	0.418 mL/min/mg protein		16.9 nM		92.2 nM	65%	4.96 nM				
Cc1cc2ccn(CCN3CCN(c4noc5ccccc45)CC3)c(=O)c2cn1 [Example 113, 2-{2-[4-(1,2-Benzoisoxazol-3-yl)piperazin-1-yl]ethyl}-6-methyl-2,7-naphthyridin-1(2H)-one]	7000 nM	3.7 nM	0.079 mL/min/mg protein		14.4 nM		16 nM	67%	8.63 nM				
Cc1noc2c1C(=O)N(CCN1CCC(c3noc4ccccc34)CC1)CCC2 [Example 38]	500 nM	4.44 nM	0.136 mL/min/mg protein		13.5 nM		395 nM	56%	24 nM				
Cc1ncc2c(n1)CCN(CCN1CCN(c3noc4ccccc34)CC1)C2=O [Example 179]	> 10000 nM	22.9 nM	<0.05 mL/min/mg protein	70.8 nM	283 nM	> 10000 nM				>35	>438	>35.3	>437.6
O=C1c2ncccc2CCN1CCN1CCC(c2noc3cccc(F)c23)CC1 [Example 141]		173 nM		976 nM	4.16 nM	> 10000 nM	30 nM	44%				>2405.7	>57.8
O=C1c2ncccc2CCN1CCN1CCN(c2noc3ccccc23)CC1 [Example 1, 7-{2-[4-(1,2-Benzoisoxazol-3-yl)piperazin-1-yl]ethyl}-6,7-dihydro-1,7-naphthyridin-8(5H)-one]	> 10000 nM	49 nM	<0.01 mL/min/mg protein		21.5 nM		94.7 nM	50%	44.6 nM				
Cn1cnc2c1C(=O)N(CCN1CCN(c3nsc4ccccc34)CC1)CC2 [Example 56]	7600 nM	0.11 nM	0.195 mL/min/mg protein		78 nM		66.6 nM	58%	6 nM				
